This note sets out measurements from paper PMC4955970, “Stable, synthetic analogs of diadenosine tetraphosphate inhibit rat and human P2X3 receptors and inflammatory pain” (Molecular Pain, 2016).

Each structure is given as a SMILES string. Where two headings read alike, the source gives them in different places.

As usually defined, the inhibition is the change of the read-out against control, counted positive when it falls.

Experiment [1] has as its target T1, native P2X3Rs in DRG neurons (Rattus norvegicus, UniProt P49654).
T1 construct: effects of AppNHppA on native P2X3Rs in TG, DRG, and NG neurons were investigated; endogenous in cells; host or cells: cultured rat trigeminal ganglion (TG) or dorsal root ganglion (DRG) neurons
T1 sequence (P49654 1-397): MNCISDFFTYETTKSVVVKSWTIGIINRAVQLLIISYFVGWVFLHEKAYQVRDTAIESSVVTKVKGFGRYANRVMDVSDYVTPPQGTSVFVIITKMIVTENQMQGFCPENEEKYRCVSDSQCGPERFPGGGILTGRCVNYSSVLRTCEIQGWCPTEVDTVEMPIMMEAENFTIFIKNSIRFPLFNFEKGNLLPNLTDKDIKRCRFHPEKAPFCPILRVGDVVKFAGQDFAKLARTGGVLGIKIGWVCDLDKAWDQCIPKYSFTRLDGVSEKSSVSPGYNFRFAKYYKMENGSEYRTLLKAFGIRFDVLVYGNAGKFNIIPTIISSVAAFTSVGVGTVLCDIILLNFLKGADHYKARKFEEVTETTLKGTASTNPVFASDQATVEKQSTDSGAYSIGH
As to the kind of experiment: Whole-cell recording of α,β-meATP currents in cultured dorsal root ganglion (DRG) neurons. Type of experiment: cell-based. The conditions noted are these: DRG neuron, read-out: inhibition of peak currents in DRG neurons. On the procedure:
(§1) Rat trigeminal, nodose, or dorsal root ganglion (TG, NG, and DRG, respectivley) neurons in culture were prepared as described previously.[46],[47] Neurons were plated on poly-L-lysine (0.2 mg/ml)-coated Petri dishes and cultured for one to two days under an atmosphere containing 5% CO2. Cells were used within two days of plating when they lacked processes. HEK293T cells were prepared as reported previously[32],[48] and transfected with rat or human full-length P2X3 cDNA subcloned into pIRES2-EGFP (Clontech, Mountain View, CA, USA).
(§2) TG, NG, DRG, or HEK cells were recorded in the whole-cell configuration while being continuously superfused (at 2 ml/min) with control solution containing (in mM): 152 NaCl, 5 KCl, 1 MgCl2, 2 CaCl2, 10 glucose, and 10 HEPES; pH was adjusted to 7.4 with NaOH and osmolarity was adjusted to 320 mOsM with glucose. […] Responses to selective P2X3R agonist α,β-methylene-ATP (α,β-meATP; resistant to ectoATPase hydrolysis, Sigma-Aldrich) were measured using an EPC-9 amplifier operated by HEKA Patch Master software (HEKA Electronik, Germany). Cells were voltage-clamped at −70 mV. In most cells, series resistance was compensated by 80%. To determine EC50 values, dose-response curves were constructed for α,β-meATP by administering different agonist doses same cells and fitting data to a logistic equation (Origin 8.0, Microcal, Northampton, MA). […]

Experiment [2] deals with T2, native P2X3Rs in DRG neurons (Rattus norvegicus, UniProt P49654).
T2 construct: effects of AppNHppA on native P2X3Rs in TG, DRG, and NG neurons were investigated; endogenous in cells; host or cells: cultured rat trigeminal ganglion (TG) or dorsal root ganglion (DRG) neurons
T2 sequence (P49654 1-397): T1 sequence (P49654 1-397)
T2 sequence (P49653 1-472 partner): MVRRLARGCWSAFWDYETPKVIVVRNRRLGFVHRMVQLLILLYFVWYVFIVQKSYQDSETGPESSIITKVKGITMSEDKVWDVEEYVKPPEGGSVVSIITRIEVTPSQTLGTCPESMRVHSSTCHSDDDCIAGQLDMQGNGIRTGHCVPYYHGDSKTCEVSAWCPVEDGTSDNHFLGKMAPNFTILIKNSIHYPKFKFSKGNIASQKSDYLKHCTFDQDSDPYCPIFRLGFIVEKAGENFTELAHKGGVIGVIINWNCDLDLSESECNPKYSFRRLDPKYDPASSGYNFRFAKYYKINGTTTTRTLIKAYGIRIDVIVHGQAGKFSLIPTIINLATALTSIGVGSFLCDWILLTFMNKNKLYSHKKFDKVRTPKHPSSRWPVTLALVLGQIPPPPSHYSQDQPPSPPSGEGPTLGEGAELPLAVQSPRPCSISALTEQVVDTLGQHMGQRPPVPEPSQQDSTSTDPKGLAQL
The experiment is described as above. To be noted: DRG neuron, read-out: inhibition of sustained residual component in DRG neurons. The class given is cell-based. How it is done:
as §1, §2

Take `Nc1ncnc2c1ncn2[C@@H]1O[C@H](COP(=O)(O)OP(=O)(O)NP(=O)(O)OP(=O)(O)OC[C@H]2O[C@@H](n3cnc4c(N)ncnc43)[C@H](O)[C@@H]2O)[C@@H](O)[C@H]1O` [AppNHppA, diadenosine 5′,5′′′-P^1,P^4-(β,γ-imido)tetraphosphate]: the inhibition at 1 µM in experiment [1] worked out at 79.2 ± 5.6%; in experiment [2], 18 ± 6%.
